For orientation: inhibition means the percentage by which the read-out fell short of the control. Lower therefore signals a response near the control.

The values that follow come from US3969518A, “Inhibiting xanthine oxidase with 3-haloalkyl substituted benzothiadiazine-1,1-dioxides” (Merck & Co., Inc., priority 1972, dated 1976).

The target of this assay is xanthine oxidase (Bos taurus, UniProt P80457). The assay can be described thus: in vitro xanthine oxidase inhibition (hypoxanthine substrate, absorbance at 292, pH 7.4 buffer; Baker et al procedure). Particulars: hypoxanthine 6 × 10^-5 M solution, 1 minute; for inhibition at 20 µM: test compound 2 × 10^-5 M. The class given is biochemical. The procedure: The procedure used employed the principals described in J. Pharm.
Sequence of xanthine oxidase (P80457 whole entry): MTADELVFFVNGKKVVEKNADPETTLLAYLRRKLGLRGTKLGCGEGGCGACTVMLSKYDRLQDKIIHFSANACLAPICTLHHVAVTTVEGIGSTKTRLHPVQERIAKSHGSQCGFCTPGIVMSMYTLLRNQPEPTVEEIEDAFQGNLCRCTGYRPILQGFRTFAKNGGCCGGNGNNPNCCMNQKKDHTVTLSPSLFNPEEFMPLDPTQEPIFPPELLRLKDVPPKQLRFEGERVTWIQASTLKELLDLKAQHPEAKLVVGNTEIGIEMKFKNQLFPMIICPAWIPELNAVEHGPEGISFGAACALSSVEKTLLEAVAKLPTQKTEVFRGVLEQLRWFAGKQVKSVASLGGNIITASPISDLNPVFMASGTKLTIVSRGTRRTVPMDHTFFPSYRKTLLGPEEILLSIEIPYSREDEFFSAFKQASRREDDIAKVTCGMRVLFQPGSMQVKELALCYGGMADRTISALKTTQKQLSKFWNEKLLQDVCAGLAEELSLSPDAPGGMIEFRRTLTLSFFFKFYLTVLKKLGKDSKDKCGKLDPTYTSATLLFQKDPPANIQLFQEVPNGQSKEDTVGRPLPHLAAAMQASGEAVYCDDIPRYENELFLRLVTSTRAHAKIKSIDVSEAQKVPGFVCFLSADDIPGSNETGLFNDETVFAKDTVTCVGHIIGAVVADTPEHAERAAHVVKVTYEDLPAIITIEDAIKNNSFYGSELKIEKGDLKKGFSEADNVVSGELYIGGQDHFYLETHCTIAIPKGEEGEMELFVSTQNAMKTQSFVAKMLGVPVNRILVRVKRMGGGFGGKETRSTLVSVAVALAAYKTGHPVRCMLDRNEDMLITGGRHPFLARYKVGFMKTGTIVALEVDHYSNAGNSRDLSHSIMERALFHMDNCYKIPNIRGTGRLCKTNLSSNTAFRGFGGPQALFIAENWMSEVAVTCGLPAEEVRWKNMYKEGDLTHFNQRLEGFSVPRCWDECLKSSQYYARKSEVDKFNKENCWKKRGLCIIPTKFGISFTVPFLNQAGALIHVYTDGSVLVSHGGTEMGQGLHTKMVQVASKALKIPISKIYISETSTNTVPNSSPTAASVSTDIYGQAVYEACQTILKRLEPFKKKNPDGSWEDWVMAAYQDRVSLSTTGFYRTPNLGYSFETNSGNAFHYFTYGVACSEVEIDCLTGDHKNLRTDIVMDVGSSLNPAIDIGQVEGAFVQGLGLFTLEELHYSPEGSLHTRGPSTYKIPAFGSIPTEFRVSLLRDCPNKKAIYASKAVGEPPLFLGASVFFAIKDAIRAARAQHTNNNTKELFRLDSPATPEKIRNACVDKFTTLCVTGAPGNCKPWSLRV
A reference cuvette is filled with 0.05M pH 7.4 buffer. For the control, mix quickly in a cuvette 2 ml. hypoxanthine solution (6 × 10^-^5 M), 2 ml.

In turn, `CCNS(=O)(=O)c1cc2c(cc1Cl)NC(C(Cl)(Cl)Cl)NS2(=O)=O` (centres unmarked) came in with an inhibition at 20 µM of 63%.

Regarding `C=CCN(CC=C)S(=O)(=O)c1cc2c(cc1Cl)NC(C(Cl)(Cl)Cl)NS2(=O)=O` (centres unmarked), the inhibition at 20 µM came out at 6%.

Consider `CNS(=O)(=O)c1cc2c(cc1Cl)NC(C(Cl)(Cl)Cl)NS2(=O)=O` (centres unmarked), for which testing at 20 µM gave an inhibition of 16%.

Turning to `NS(=O)(=O)c1cc2c(cc1Cl)NC(C(Cl)(Cl)Cl)NS2(=O)=O` (centres unmarked), testing at 20 µM gave an inhibition of 45%.

In turn, `CCN(CC)S(=O)(=O)c1cc2c(cc1Cl)N=C(C(Cl)(Cl)Cl)NS2(=O)=O` had an inhibition at 20 µM of 3%.

On to `CCN(CC)S(=O)(=O)c1cc2c(cc1Cl)N=C(CCl)NS2(=O)=O`, for which the inhibition at 20 µM was 75%.

Turning to `CCN(CC)S(=O)(=O)c1cc2c(cc1Cl)N=C(C(Cl)Cl)NS2(=O)=O`, the inhibition at 20 µM was found to be 18%.

In the case of `CCNS(=O)(=O)c1cc2c(cc1Cl)N=C(C(Cl)Cl)NS2(=O)=O`, testing at 20 µM gave an inhibition of 6%.

For `C=CCN(CC=C)S(=O)(=O)c1cc2c(cc1Cl)N=C(CCl)NS2(=O)=O`, testing at 20 µM gave an inhibition of 53%.

With `CN(C)S(=O)(=O)c1cc2c(cc1Cl)N=C(C(C)(Cl)Cl)NS2(=O)=O`, 20 µM produced 13% inhibition.

`CN(C)S(=O)(=O)c1cc2c(cc1Cl)N=C(C(Cl)(Cl)Cl)NS2(=O)=O` returned an inhibition at 20 µM of 5%.

With `CN(C)S(=O)(=O)c1cc2c(cc1Cl)N=C(C(Cl)Cl)NS2(=O)=O`, 20 µM produced 11% inhibition.

Compound `CNS(=O)(=O)c1cc2c(cc1Cl)N=C(CCl)NS2(=O)=O` came in with an inhibition at 20 µM of 78%.

`NS(=O)(=O)c1cc2c(cc1Cl)N=C(CCl)NS2(=O)=O` came in with an inhibition at 20 µM of 24%.

`CCCN(CCC)S(=O)(=O)c1cc2c(c(Cl)c1Cl)N=C(C(Cl)(Cl)Cl)NS2(=O)=O` displayed an inhibition at 20 µM of 26%.

Consider `CCCN(CCC)S(=O)(=O)c1cc2c(c(Cl)c1Cl)N=C(CCl)NS2(=O)=O`, for which testing at 20 µM gave an inhibition of 33%.

The compound `CCCN(CCC)S(=O)(=O)c1cc2c(c(Cl)c1Cl)N=C(C(Cl)Cl)NS2(=O)=O` gave an inhibition at 20 µM of 21%.

`CCCN(CCC)S(=O)(=O)c1cc2c(cc1Cl)N=C(C(Cl)(Cl)Cl)NS2(=O)=O` yielded an inhibition at 20 µM of 14%.

Compound `CCCN(CCC)S(=O)(=O)c1cc2c(cc1Cl)N=C(CBr)NS2(=O)=O` showed an inhibition at 20 µM of 30%.

The compound `CCCN(CCC)S(=O)(=O)c1cc2c(cc1Cl)N=C(CCl)NS2(=O)=O` showed an inhibition at 20 µM of 69%.

With `CCCN(CCC)S(=O)(=O)c1cc2c(cc1Cl)N=C(C(Cl)Cl)NS2(=O)=O`, the inhibition at 20 µM was determined as 12%.

Compound `CN(C)S(=O)(=O)c1cc2c(cc1Cl)N=C(CCl)NS2(=O)=O` [3-Chloromethyl-6-chloro-7-N,N-dimethylsulfamoyl-1,2,4-benzothiadiazine-1,1-dioxide] came in with an inhibition at 2 µM (1 min, test compound at 2 × 10^-6 (footnote 1)) of 52%.

`CCCN(CCC)S(=O)(=O)c1cc2c(cc1Cl)NC(C(Cl)(Cl)Cl)NS2(=O)=O` (centres unmarked) [3-Trichloromethyl-6-chloro-7-N,N-di-n-propylsulfamoyl-3,4-dihydro-1,2,4-benzothiadiazine-1,1-dioxide] showed an inhibition at 20 µM of 6%.
